Measurements taken from US5026715A, “2-guanidino-4-arylthiazoles for treatment of peptic ulcers” (Pfizer Inc., priority 1989, dated 1991).
Structures can show the parent of a compound that is named as a salt.

What follows are compounds tested on ethanol-induced gastric ulceration in rats (assay: Inhibition of ethanol-induced gastric ulceration in rats (cytoprotective activity)). Conditions: dose of 30 mg/kg.
Assay type: in vivo, rat
Description: The in vivo utility of the present compounds as antiulcer agents is also particularly shown by their cytoprotective activity.

Structure (SMILES)	inhibition of ethanol-induced gastric ulceration [%]
Cc1cc(-c2csc(NC(=N)N)n2)c[nH]1 [2-guanidino-4-(2-methylpyrrol-4-yl)thiazole]	100
NC(=Nc1nc(-c2ccc[nH]2)cs1)NCc1ccccc1 [2-(N-benzylguanidino)-4-(pyrrol-2-yl)thiazole]	99

Each compound was assayed against T1, H^+ / K^+ ATPase isolated from canine gastric mucosa (Canis lupus familiaris, UniProt P50996) (assay: Inhibition of H+/K+ ATPase isolated from canine gastric mucosa). Conditions: preincubated 45 minutes at 37° C., pH 7.5, drugs preferably acid activated in 1:1 dimethylsulfoxide:0.02N HCl, 30 minutes, read-out: IC50 (the concentration which inhibits the enzyme to the extent of 50%).
T1 construct: ATPase isolated from canine gastric mucosa; from tissue; host or cells: canine gastric mucosa
Assay type: biochemical
Procedure: The utility of the present compounds as antiulcer agents is reflected in vitro by their inhibition of H^+ / K^+ ATPase isolated from canine gastric mucosa. The enzyme activity was assayed according to Beil et al., Brit. J. Pharmacol. 82, 651-657 (1984) with slight modifications. The enzyme (1-2 micrograms) was preincubated at 37° C. for 45 minutes with a medium containing 2×10^-3 M MgCl2, 0.05M Tris-Cl buffer (pH 7.5) with or without 0.01M KCl, and the acid activated test drug in a final volume of 0.590 ml. The reaction was started by the addition of […] of ATP (final concentration 3×10^-3 M). The reaction was terminated by adding trichloroacetic acid to a concentration of 4.2%. Liberated inorganic phosphate was determined using Fiske and Subbarow Reducer available commercially (e.g., from Sigma Chemical Co., P.O. Box 14508, St. Louis, Mo. 63178, U.S.A.). In this test the drugs are preferably first acid activated by incubating in 1:1 dimethylsulfoxide:0.02N HCl at 37° C. for 30 minutes.

T1 sequence (P50996 2-1034 limits assumed): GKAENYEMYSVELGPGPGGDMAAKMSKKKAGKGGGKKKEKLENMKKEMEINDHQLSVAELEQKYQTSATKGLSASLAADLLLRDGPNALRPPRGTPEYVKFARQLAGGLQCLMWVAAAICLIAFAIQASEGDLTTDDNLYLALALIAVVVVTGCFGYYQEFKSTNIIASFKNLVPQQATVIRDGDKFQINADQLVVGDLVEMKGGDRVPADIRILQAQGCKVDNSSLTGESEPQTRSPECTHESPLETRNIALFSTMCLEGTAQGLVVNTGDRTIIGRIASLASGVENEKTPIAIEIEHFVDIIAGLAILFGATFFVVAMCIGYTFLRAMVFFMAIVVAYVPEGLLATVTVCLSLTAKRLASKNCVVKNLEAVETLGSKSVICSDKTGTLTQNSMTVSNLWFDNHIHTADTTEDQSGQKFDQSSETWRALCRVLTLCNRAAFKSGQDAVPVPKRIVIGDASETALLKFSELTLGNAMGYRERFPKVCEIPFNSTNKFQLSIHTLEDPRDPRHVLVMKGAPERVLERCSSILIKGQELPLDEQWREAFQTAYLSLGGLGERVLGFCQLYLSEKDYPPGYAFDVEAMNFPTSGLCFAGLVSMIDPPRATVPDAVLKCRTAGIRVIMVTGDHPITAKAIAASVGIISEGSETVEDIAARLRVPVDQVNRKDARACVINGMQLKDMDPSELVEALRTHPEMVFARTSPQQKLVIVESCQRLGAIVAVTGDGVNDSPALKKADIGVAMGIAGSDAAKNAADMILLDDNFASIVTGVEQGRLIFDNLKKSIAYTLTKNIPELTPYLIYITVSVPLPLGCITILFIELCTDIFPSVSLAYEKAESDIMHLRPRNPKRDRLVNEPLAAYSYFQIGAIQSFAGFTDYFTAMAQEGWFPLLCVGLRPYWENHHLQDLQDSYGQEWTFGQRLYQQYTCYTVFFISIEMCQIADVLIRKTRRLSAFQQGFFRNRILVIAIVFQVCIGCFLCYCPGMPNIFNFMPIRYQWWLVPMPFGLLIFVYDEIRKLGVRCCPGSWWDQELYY
T1 sequence (P33704 whole entry partner): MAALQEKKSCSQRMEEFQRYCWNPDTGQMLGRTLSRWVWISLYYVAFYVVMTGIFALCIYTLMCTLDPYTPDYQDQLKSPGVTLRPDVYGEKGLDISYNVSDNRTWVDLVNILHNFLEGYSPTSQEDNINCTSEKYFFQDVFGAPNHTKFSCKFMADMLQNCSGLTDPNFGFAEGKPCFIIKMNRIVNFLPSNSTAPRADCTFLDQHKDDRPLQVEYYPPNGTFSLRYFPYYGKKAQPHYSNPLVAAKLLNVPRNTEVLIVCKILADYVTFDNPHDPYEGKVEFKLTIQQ

IC50 [µM]	Structure (SMILES)
0.6	N=C(NCc1ccccc1)Nc1nc(-c2c[nH]c3ccc(Cl)cc23)cs1 [4-(5-chloro-1H-indol-3-yl)-2-(N-benzylguanidino)thiazole]
15	Cc1cc(-c2csc(NC(=N)N)n2)c[nH]1 [2-guanidino-4-(2-methylpyrrol-4-yl)thiazole]
10	COc1cccc(-c2csc(NC(=N)NCc3ccccc3)n2)c1 [4-(3-methoxyphenyl)-2-(N-benzylguanidino)thiazole]
2	N=C(NCc1ccccc1)Nc1nc(-c2c[nH]c3ccccc23)cs1 [4-(1H-Indol-3-yl)-2-(N-benzyl-N"-guanidino)thiazole Hydrochloride]
